The record followed here is patent US20260042755A1, “GPR6 INVERSE AGONISTS” (MapLight Therapeutics, Inc., priority 2022, published 2026).

pIC50: −log10 of the molar value.

The target in one assay is T1, GPR3 (Homo sapiens, UniProt P46089).
T1 construct: expressed in transfected cells; host or cells: CHO cells
Put plainly: GPR3 antagonist functional cAMP assay (LANCE Ultra cAMP TR-FRET, CHO cells stably expressing GPR3). The class given is cell-based. The procedure, abridged: (§1)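 Compounds, at 0.1% final DMSO, acted on the cells for 45 minutes at 37 °C in the presence of the phosphodiesterase inhibitor Ro 20-1724 (150 μM). After lysis and detection, plates were shaken 1 h at room temperature and emission at 665 nm was recorded. Normalized data gave IC50 values.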
(In general: cAMP levels reflect the balance of adenylyl cyclase and phosphodiesterase activity.)

A further assay has as its target T2, GPR6 (Homo sapiens, UniProt P46095).
T2 construct: expressed in transfected cells; host or cells: CHO cells
Put plainly: GPR6 antagonist functional cAMP assay (LANCE Ultra cAMP TR-FRET, CHO cells stably expressing GPR6). The class given is cell-based. The procedure, abridged: as §1

[1] abbreviates: CHO cells stably expressing GPR3, cAMP assay.
The mark [2] stands for this setting: CHO cells stably expressing GPR6, cAMP assay.
Where [3] appears, read: CHO cells stably expressing GPR3, cAMP assay (Example 24).
Setting [4] is: CHO cells stably expressing GPR6, cAMP assay (Example 24).
Where [5] appears, read: procedure as described in Example 24.

T1 sequence (P46089 whole entry, species assumed): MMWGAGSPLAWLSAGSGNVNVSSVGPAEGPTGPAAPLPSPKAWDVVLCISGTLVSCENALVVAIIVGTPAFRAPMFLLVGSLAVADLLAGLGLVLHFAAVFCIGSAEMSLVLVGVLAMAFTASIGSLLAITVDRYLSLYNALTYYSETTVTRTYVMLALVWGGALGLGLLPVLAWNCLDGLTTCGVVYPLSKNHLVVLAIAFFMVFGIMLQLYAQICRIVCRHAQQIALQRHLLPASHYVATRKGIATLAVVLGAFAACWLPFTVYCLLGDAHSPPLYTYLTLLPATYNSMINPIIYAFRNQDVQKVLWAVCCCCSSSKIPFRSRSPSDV
T2 sequence (P46095 whole entry): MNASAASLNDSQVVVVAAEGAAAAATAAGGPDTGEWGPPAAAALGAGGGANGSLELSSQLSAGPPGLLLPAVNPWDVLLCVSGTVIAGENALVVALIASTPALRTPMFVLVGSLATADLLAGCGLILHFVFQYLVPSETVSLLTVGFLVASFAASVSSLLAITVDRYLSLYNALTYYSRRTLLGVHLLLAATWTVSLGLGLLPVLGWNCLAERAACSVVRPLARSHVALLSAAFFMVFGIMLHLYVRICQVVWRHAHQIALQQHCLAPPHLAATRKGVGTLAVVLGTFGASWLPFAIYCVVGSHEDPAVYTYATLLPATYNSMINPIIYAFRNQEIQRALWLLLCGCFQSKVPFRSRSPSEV

Regarding `Nc1cc2nc(-c3cnn(CF)c3)c(N3CCN(Cc4ccc(F)cc4F)CC3)nc2cn1` [Compound 794, 3-{4-[(2,4-difluorophenyl)methyl]-1-piperazinyl}-2-[1-(fluoromethyl)-4-pyrazolyl]-1,4,6-triaza-7-naphthylamine], the pIC50 (commonly the IC50 on a negative log10 scale, so that one unit is a factor of ten) is 4.52 to 6.00 on GPR3 (procedure of Example 24) and 6.00 to 7.00 against GPR6 (procedure of Example 24).

`CC(C)(O)C(O)c1cc2nc(-c3cn[nH]c3)c(N3CCC(=Cc4ccc(F)cc4F)CC3)nc2cn1` (stereo not shown) [Compound 780, 1-(3-{4-[(2,4-difluorophenyl)methylene]-1-piperidyl}-2-(4-pyrazolyl)-1,4,6-triaza-7-naphthyl)-2-methyl-1,2-propanediol]: the pIC50 is 6.00 to 7.00 at GPR3 (procedure of Example 24) and greater than 7.00 against GPR6 (procedure of Example 24).

With `CC(=O)N1CCc2nc(N3CCC(COc4cc(F)ccc4F)C3)c(-c3cnn(C)c3)nc2C1` (stereo not shown) [Compound 364, 1-(2-{3-[(2,5-difluorophenoxy)methyl]pyrrolidin-1-yl}-3-(1-methyl-1H-pyrazol-4-yl)-5H,6H,7H,8H-pyrido[3,4-b]pyrazin-6-yl)ethan-1-one], the pIC50 on GPR3 (procedure of Example 24) and at GPR6 (procedure of Example 24) was 4.52 to 6.00 each time.

Consider `CC(C)(O)C(O)c1cc2nc(N3CCN(Cc4ccccc4F)CC3)c(-c3cnn(C(F)F)c3)nc2cn1` (stereo not shown) [Compound 559, 1-{3-[1-(difluoromethyl)-4-pyrazolyl]-2-{4-[(o-fluorophenyl)methyl]-1-piperazinyl}-1,4,6-triaza-7-naphthyl}-2-methyl-1,2-propanediol], for which the pIC50 is 4.52 to 6.00 on GPR3 (setting [1]) and 6.00 to 7.00 on GPR6 (setting [2]).

As for `FCn1cc(-c2nc3cc(Cl)ncc3nc2N2CCN(Cc3ccc(F)cc3F)CC2)cn1` [Compound 761, 7-chloro-3-{4-[(2,4-difluorophenyl)methyl]-1-piperazinyl}-2-[1-(fluoromethyl)-4-pyrazolyl]-1,4,6-triazanaphthalene], the pIC50 against GPR3 (procedure of Example 24) was 4.52 to 6.00; against GPR6 (procedure of Example 24), 6.00 to 7.00.

With `CC(=O)N1CCc2nc(N3CCN(Cc4ccn[nH]4)CC3)c(-c3cnn(C)c3)nc2C1` [Compound 524, 1-[3-(1-methyl-4-pyrazolyl)-2-{4-[(5-pyrazolyl)methyl]-1-piperazinyl}-5,6,7,8-tetrahydro-1,4,6-triaza-6-naphthyl]-1-ethanone], the pIC50 on GPR3 (setting [1]) and on GPR6 (setting [2]) was no more than 4.52 each time.

For `COc1ccc(OC2CCN(c3nc4c(nc3-c3cnn(C)c3)CN(C(C)=O)CC4)CC2)cc1` [Compound 425, 1-{2-[4-(4-methoxyphenoxy)piperidin-1-yl]-3-(1-methyl-1H-pyrazol-4-yl)-5H,6H,7H,8H-pyrido[3,4-b]pyrazin-6-yl}ethan-1-one], the pIC50 against GPR3 (setting [3]) and against GPR6 (setting [4]) was 4.52 to 6.00 in each case.

On to `Cn1cc(-c2nc3cnc(C(O)C4CC4)cc3nc2N2CCC(Oc3ccc(F)cc3F)CC2)cn1` (stereo not shown) [Compound 250, cyclopropyl(2-(4-(2,4-difluorophenoxy)piperidin-1-yl)-3-(1-methyl-1H-pyrazol-4-yl)pyrido[3,4-b]pyrazin-7-yl)methanol], for which the pIC50 against GPR3 (setting [3]) and at GPR6 (setting [4]) was 4.52 to 6.00 in each case.

In the case of `Cn1cc(-c2nc3cnccc3nc2N2CCN(CC3CCC(F)(F)CC3)CC2)cn1` [Compound 213, 1-[(4,4-difluorocyclohexyl)methyl]-4-[3-(1-methyl-1H-pyrazol-4-yl)pyrido[3,4-b]pyrazin-2-yl]piperazine], the pIC50 against GPR3 (setting [3]) and against GPR6 (setting [4]) was 4.52 to 6.00 throughout.

Turning to `CC(=O)N1CCc2nc(N3CCC(Oc4ccc(F)cc4F)CC3)c(-c3cn[nH]c3C)nc2C1` [Compound 43, 1-{2-[4-(2,4-difluorophenoxy)piperidin-1-yl]-3-(5-methyl-1H-pyrazol-4-yl)-5H,6H,7H,8H-pyrido[3,4-b]pyrazin-6-yl}ethan-1-one], the pIC50 was 4.52 to 6.00 against GPR3 (setting [5]) and 6.00 to 7.00 on GPR6 (setting [5]).

In the case of `CC(=O)N1CCc2nc(N3CCN(Cc4ccc(F)cc4)CC3)c(-c3cnn(C)c3)nc2C1` [Compound 257, 1-(2-{4-[(4-fluorophenyl)methyl]piperazin-1-yl}-3-(1-methyl-1H-pyrazol-4-yl)-5H,6H,7H,8H-pyrido[3,4-b]pyrazin-6-yl)ethan-1-one], the pIC50 on GPR3 (setting [3]) and on GPR6 (setting [4]) was 4.52 to 6.00 each time.

As to `CC(=O)N1CC=C(c2nc3c(nc2N2CCC(Oc4ccc(F)cc4F)CC2)CCN(C(C)=O)C3)C1` [Compound 72, 1-(3-{6-acetyl-2-[4-(2,4-difluorophenoxy)piperidin-1-yl]-5H,6H,7H,8H-pyrido[3,4-b]pyrazin-3-yl}-2,5-dihydro-1H-pyrrol-1-yl)ethan-1-one], the pIC50 against GPR3 (setting [3]) and at GPR6 (setting [4]) was 4.52 to 6.00 in each case.

As for `CC(=O)N1CCc2nc(N3CCC(Oc4cc(C#N)ccc4F)CC3)c(-c3cnn(C)c3)nc2C1` [Compound 424, 3-({1-[6-acetyl-3-(1-methyl-1H-pyrazol-4-yl)-5H,6H,7H,8H-pyrido[3,4-b]pyrazin-2-yl]piperidin-4-yl}oxy)-4-fluorobenzonitrile], the pIC50 on GPR3 (setting [3]) and against GPR6 (setting [4]) was 4.52 to 6.00 throughout.

As to `CC(C)(O)[C@H](O)c1cc2nc(N3CCC(=Cc4ccc(F)cc4F)CC3)c(-c3cnn(CF)c3)nc2cn1` (single isomer, unassigned) [Compound 784], the negative logarithm of the IC50 (pIC50) was 4.52 to 6.00 against GPR3 (procedure of Example 24) and greater than 7.00 against GPR6 (procedure of Example 24).

`CC(=O)N1CCc2nc(N3CCC(Oc4ccc(F)cc4F)CC3)c(C3=CC(O)CCC3)nc2C1` (stereo not shown) [Compound 234, 1-{2-[4-(2,4-difluorophenoxy)piperidin-1-yl]-3-(3-hydroxycyclohex-1-en-1-yl)-5H,6H,7H,8H-pyrido[3,4-b]pyrazin-6-yl}ethan-1-one]: the pIC50 against GPR3 (setting [3]) and at GPR6 (setting [4]) was 4.52 to 6.00 in each case.

As to `CC(C)(O)[C@](C)(O)c1cc2nc(N3CCN(Cc4ccccc4F)CC3)c(-c3cnn(C(F)F)c3)nc2cn1` (single isomer, unassigned) [Compound 669], the pIC50 at GPR3 (procedure of Example 24) was 4.52 to 6.00; on GPR6 (procedure of Example 24) it was 6.00 to 7.00.

As to `Fc1ccc(F)c(CN2CCN(c3nc4cnc(-c5cnn(C(F)F)c5)cc4nc3-c3cnn(C(F)F)c3)CC2)c1` [Compound 774, 2,7-bis [1-(difluoromethyl)-4-pyrazolyl]-3-{4-[(2,5-difluorophenyl)methyl]-1-piperazinyl}-1,4,6-triazanaphthalene], the pIC50 against GPR3 (procedure of Example 24) and at GPR6 (procedure of Example 24) was 4.52 to 6.00 in each case.

For `COC(=O)/C(C)=C/c1cc2nc(N3CCC(Oc4ccc(F)cc4F)CC3)c(-c3cnn(C)c3)nc2cn1` [Compound 734, methyl 3-{2-[4-(2,4-difluorophenoxy)-1-piperidyl]-3-(1-methyl-4-pyrazolyl)-1,4,6-triaza-7-naphthyl}methacrylate], the pIC50 at GPR3 (procedure of Example 24) and at GPR6 (procedure of Example 24) was 4.52 to 6.00 throughout.

For the compound `COc1ccc(C(=O)N2CCN(c3nc4c(nc3-c3cnn(C)c3)CN(C(C)=O)CC4)CC2)c(F)c1` [Compound 254, 1-{2-[4-(2-fluoro-4-methoxybenzoyl)piperazin-1-yl]-3-(1-methyl-1H-pyrazol-4-yl)-5H,6H,7H,8H-pyrido[3,4-b]pyrazin-6-yl}ethan-1-one], the pIC50 at GPR3 (setting [3]) and on GPR6 (setting [4]) was 4.52 to 6.00 throughout.

As for `COc1cc(F)c(CN2CCN(c3nc4c(nc3-c3cnn(C)c3)CN(C(C)=O)CC4)CC2)cc1Cl` [Compound 361, 1-(2-{4-[(5-chloro-2-fluoro-4-methoxyphenyl)methyl]piperazin-1-yl}-3-(1-methyl-1H-pyrazol-4-yl)-5H,6H,7H,8H-pyrido[3,4-b]pyrazin-6-yl)ethan-1-one], the negative logarithm of the IC50 (pIC50) on GPR3 (procedure of Example 24) and against GPR6 (procedure of Example 24) was 4.52 to 6.00 in each case.
